The values below come from ChEMBL document CHEMBL4033685, “C21-steroidal pregnane sapogenins and their derivatives as anti-inflammatory agents” (Bioorg Med Chem, 2017).

Series [1] addresses T1, Toll-like receptor 4 (Homo sapiens, UniProt O00206). Briefly: Antagonist activity at TLR4 (unknown origin) expressed in human AD293 cells assessed as inhibition of LPS/ATP-stimulated TLR4/NF-kB signaling pathway at 10 uM after 16 hrs by luciferase reporter gene assay. Type of series: cell-based. For orientation: Reporter assays use an easily measured gene product as a stand-in for the process of interest.

Series [2] deals with AD293. As to the kind of experiment: Cytotoxicity against human AD293 cells assessed as reduction in cell viability at 10 uM after 24 hrs by methylene blue dye based spectrophotometric method. The note with it: ad293, 24 h.
Series [3] addresses T1, Toll-like receptor 4. As to the kind of experiment: Antagonist activity at TLR4 in human THP1 cells assessed as inhibition of LPS-stimulated IL-6 mRNA level at 10 uM after 16 hrs by RT-PCR method. Type of series: cell-based.
Series [4] deals with T1, Toll-like receptor 4. Briefly: Antagonist activity at TLR4 in human THP1 cells assessed as inhibition of LPS-stimulated RANTES mRNA level at 10 uM after 16 hrs by RT-PCR method. It is filed as cell-based.
The species named for series [5] is Homo sapiens. As to the kind of experiment: Inhibition of TNFalpha-stimulated NF-kB signaling pathway (unknown origin) expressed in human AD293 cells after 4 hrs by luciferase reporter gene assay. Type of series: cell-based.
For series [6], the target named is T1, Toll-like receptor 4. Briefly: Antagonist activity at TLR4 (unknown origin) expressed in human AD293 cells assessed as inhibition of LPS/ATP-stimulated TLR4/NF-kB signaling pathway after 16 hrs by luciferase reporter gene assay. Type of series: cell-based.
In series [7] the test system is AD293. Briefly: Cytotoxicity against human AD293 cells assessed as reduction in cell viability after 24 hrs by methylene blue dye based spectrophotometric method. The note with it: ad293, 24 h.

Calls of active or inactive are those of the source. The rule behind the calls is not given here.

One may read the EC10 as the point of the concentration-response curve where the effect stands at 10%. The term EC50 denotes the concentration that produces a half-maximal response.

T1 sequence (O00206 whole entry): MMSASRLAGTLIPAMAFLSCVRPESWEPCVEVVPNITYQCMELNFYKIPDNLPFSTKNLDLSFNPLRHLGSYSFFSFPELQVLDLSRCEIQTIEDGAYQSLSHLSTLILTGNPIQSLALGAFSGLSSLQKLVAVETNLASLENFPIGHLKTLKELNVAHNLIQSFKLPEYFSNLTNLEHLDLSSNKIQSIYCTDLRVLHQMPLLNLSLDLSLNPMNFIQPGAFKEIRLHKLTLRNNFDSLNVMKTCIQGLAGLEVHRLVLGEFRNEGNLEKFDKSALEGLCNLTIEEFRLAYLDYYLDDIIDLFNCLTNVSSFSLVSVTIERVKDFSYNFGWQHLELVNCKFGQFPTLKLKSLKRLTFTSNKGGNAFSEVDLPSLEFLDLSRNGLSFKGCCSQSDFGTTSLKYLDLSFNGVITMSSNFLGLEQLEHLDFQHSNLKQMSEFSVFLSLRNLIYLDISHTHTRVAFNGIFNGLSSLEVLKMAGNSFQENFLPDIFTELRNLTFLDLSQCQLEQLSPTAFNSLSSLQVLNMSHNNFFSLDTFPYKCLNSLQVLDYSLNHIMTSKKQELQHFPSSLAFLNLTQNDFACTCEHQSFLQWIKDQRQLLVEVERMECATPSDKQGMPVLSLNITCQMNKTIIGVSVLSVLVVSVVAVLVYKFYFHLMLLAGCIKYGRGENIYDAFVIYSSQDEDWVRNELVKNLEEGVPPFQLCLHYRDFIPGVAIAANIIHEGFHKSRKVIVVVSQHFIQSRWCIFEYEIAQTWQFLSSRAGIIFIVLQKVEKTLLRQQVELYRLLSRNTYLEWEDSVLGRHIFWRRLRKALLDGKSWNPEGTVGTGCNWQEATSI

`CC(=O)[C@]1(O)CC[C@@]2(O)[C@]1(C)[C@H](OC(=O)/C=C/c1ccccc1)C[C@@H]1[C@@]3(C)CC[C@H](OC(=O)/C=C/c4ccc([N+](=O)[O-])cc4)CC3=CC[C@]12O`: in series [1], the inhibition entry is “inactive”. Besides, the Activity entry in series [2] was “Toxic”.
In the same order, the values of `CC(O)[C@]1(O)CC[C@@]2(O)[C@]1(C)[C@H](OC(=O)c1ccc(O)cc1)C[C@@H]1[C@@]3(C)CC[C@H](O)CC3=CC[C@]12O` (stereo partly specified) are “inactive” and “Toxic”.
On to `C[C@H]1O[C@@H]2C[C@@H]3[C@@]4(C)CC[C@H](O)CC4=CC[C@@]3(O)[C@@]3(O)CC[C@]1(OC(=O)/C=C/c1ccccc1)[C@@]23C`, for which the inhibition entry in series [1] is “inactive”. For the same compound, the Activity entry in series [2] is recorded as “Toxic”.
With `CC(=O)[C@]1(OC(=O)c2ccc(Cl)nc2)CC[C@@]2(O)[C@]1(C)[C@H](OC(=O)c1ccc(O)cc1)C[C@@H]1[C@@]3(C)CC[C@H](OC(=O)c4ccc(Cl)nc4)CC3=CC[C@]12O`, in series [1], the inhibition result is “inactive”. In addition, the Activity result in series [2] is given as “Toxic”.
In the case of `COc1cc(/C=C/C(=O)O[C@H]2CC[C@@]3(C)C(=CC[C@]4(O)[C@@H]3C[C@@H](OC(=O)/C=C/c3ccccc3)[C@@]3(C)[C@]4(O)CC[C@@]3(O)C(C)=O)C2)cc(OC)c1OC`, the inhibition result in series [1] was “inactive”. The Activity entry in series [2] is “Toxic”.
The like results for `CC(=O)[C@]1(OC(=O)c2ccc([N+](=O)[O-])cc2)CC[C@@]2(O)[C@]1(C)[C@H](OC(=O)c1ccc(O)cc1)C[C@@H]1[C@@]3(C)CC[C@H](OC(=O)c4ccc([N+](=O)[O-])cc4)CC3=CC[C@]12O` were, in that order, “inactive” and “Toxic”.
Take `CC(=O)[C@]1(O)CC[C@@]2(O)[C@]1(C)[C@H](OC(=O)/C=C(\C)C(C)C)C[C@@H]1[C@@]3(C)CC[C@H](OC(=O)c4ccc(Cl)nc4)CC3=CC[C@]12O`: the inhibition result in series [3] and in series [4] was “inactive” each time.
For the compound `C[C@H]1O[C@@H]2C[C@@H]3[C@@]4(C)CC[C@H](OC(=O)/C=C/c5ccccc5)CC4=CC[C@@]3(O)[C@@]3(O)CC[C@]1(OC(=O)/C=C/c1ccccc1)[C@@]23C`, in series [1], the inhibition result is “inactive”. The Activity entry in series [2] is listed as “Toxic”.
With `CC(=O)[C@]1(O)CC[C@@]2(O)[C@]1(C)[C@H](OC(=O)c1ccccc1)C[C@@H]1[C@@]3(C)CC[C@H](O)CC3=CC[C@]12O`, the inhibition entry in series [3] and in series [4] was “inactive” each time.
On to `CC(=O)[C@]1(O)CC[C@]23OC(C)(C)O[C@]24CC=C2C[C@@H](O)CC[C@]2(C)[C@H]4C[C@@H](OC(=O)c2ccc(O)cc2)[C@@]31C`, for which the inhibition result in series [1] was “inactive”. Further, in series [2], the Activity entry is “Toxic”.
Consider `CC(=O)[C@]1(O)CC[C@@]2(O)[C@]1(C)[C@H](OC(=O)/C=C(\C)C(C)C)C[C@@H]1[C@@]3(C)CCC(=O)CC3=CC[C@]12O`, for which the EC10 in series [5] and in series [7] was above 10 µM in each case. The EC50 in series [6] came to 11.7 µM.
Turning to `CC(=O)[C@]1(O)CC[C@@]2(O)[C@]1(C)[C@H](OC(=O)/C=C(\C)C(C)C)C[C@@H]1[C@@]3(C)CC[C@H](O)CC3=CC[C@]12O` [CAUDATIN], the inhibition result in series [1] was “inactive”. Further, in series [2], the Activity result is on record as “Toxic”.
`C[C@H]1O[C@@H]2C[C@@H]3[C@@]4(C)CC[C@H](OC(=O)/C=C/c5ccc([N+](=O)[O-])cc5)CC4=CC[C@@]3(O)[C@@]3(O)CC[C@]1(OC(=O)/C=C/c1ccccc1)[C@@]23C`: the inhibition result in series [1] was “inactive”. For the same compound, in series [2], the Activity entry is “Toxic”.
In the same order, the values of `CC(=O)[C@]1(O)CC[C@@]2(O)[C@]1(C)[C@H](OC(=O)c1ccc(O)cc1)C[C@@H]1[C@@]3(C)CC[C@H](O)CC3=CC[C@]12O` are “inactive” and “Toxic”.
On to `CC(=O)[C@]1(OS(C)(=O)=O)CC[C@@]2(O)[C@]1(C)[C@H](OC(=O)c1ccc(O)cc1)C[C@@H]1[C@@]3(C)CC[C@H](OS(C)(=O)=O)CC3=CC[C@]12O`, for which the inhibition entry in series [1] is “inactive”. The Activity result in series [2] is on record as “Toxic”.
In series [5], `C[C@@H](OC(=O)c1cccnc1)[C@]1(O)CC[C@@]2(O)[C@]1(C)[C@H](OC(=O)/C=C/c1ccccc1)C[C@@H]1[C@@]3(C)CC[C@H](OC(=O)/C=C/c4ccc([N+](=O)[O-])cc4)CC3=CC[C@]12O` registered an EC10 above 10 µM. Moreover, in series [6], the EC50 amounted to 14 µM. Also, the CC10 in series [7] was above 10 µM.
As to `CC(=O)[C@]1(O)CC[C@@]2(O)[C@]1(C)[C@H](OC(=O)c1ccc(O)cc1)C[C@@H]1[C@@]3(C)CCC(=O)CC3=CC[C@]12O`, the inhibition result in series [1] was “inactive”. Besides, the Activity result in series [2] is reported as “Toxic”.
Regarding `CC(=O)O[C@H]1CC[C@@]2(C)C(=CC[C@]3(O)[C@@H]2C[C@@H](OC(=O)/C=C/c2ccccc2)[C@@]2(C)[C@]3(O)CC[C@@]2(O)C(C)=O)C1`, in series [1], the inhibition entry is “inactive”. The Activity result in series [2] is listed as “Toxic”.
Turning to `COc1ccc(/C=C/C(=O)O[C@H]2CC[C@@]3(C)C(=CC[C@]4(O)[C@@H]3C[C@@H](OC(=O)/C=C/c3ccccc3)[C@@]3(C)[C@]4(O)CC[C@@]3(O)C(C)=O)C2)cc1`, the inhibition entry in series [1] is “inactive”. The Activity entry in series [2] is on record as “Toxic”.
In the case of `COc1ccc(/C=C/C(=O)O[C@H]2CC[C@@]3(C)C(=CC[C@]4(O)[C@@H]3C[C@H]3O[C@H](C)[C@]5(OC(=O)/C=C/c6ccccc6)CC[C@@]4(O)[C@]35C)C2)cc1`, in series [1], the inhibition entry is “inactive”. The Activity entry in series [2] is listed as “Toxic”.
In the same order, the values of `COc1cc(/C=C/C(=O)O[C@H]2CC[C@@]3(C)C(=CC[C@]4(O)[C@@H]3C[C@H]3O[C@H](C)[C@]5(OC(=O)/C=C/c6ccccc6)CC[C@@]4(O)[C@]35C)C2)cc(OC)c1OC` are “inactive” and “Toxic”.
With `CC(=O)[C@]1(O)CC[C@@]2(O)[C@]1(C)[C@H](OC(=O)/C=C(\C)C(C)C)C[C@@H]1[C@@]3(C)CC[C@H](Cl)CC3=CC[C@]12O`, in series [5], the EC10 was above 10 µM. For the same compound, the EC50 in series [6] turned out to be 12 µM. The CC10 in series [7] is above 10 µM.
Take `CC(=O)[C@]1(O)CC[C@@]2(O)[C@]1(C)[C@H](OC(=O)c1ccc(O)cc1)C[C@@H]1[C@@]3(C)CC[C@H](Br)CC3=CC[C@]12O`: in series [1], the inhibition result is “inactive”. Also, in series [2], the Activity entry is given as “Toxic”.
Turning to `CC(=O)[C@]1(O)CC[C@@]2(O)[C@]1(C)[C@H](OC(=O)/C=C(\C)C(C)C)C[C@@H]1[C@@]3(C)CCC(OC(=O)CCl)CC3=CC[C@]12O` (stereo partly specified), the inhibition result in series [1] was “inactive”. Besides, the Activity entry in series [2] is on record as “Toxic”.
Consider `CC(=O)[C@]1(OC(=O)c2cccc3ccccc23)CC[C@@]2(O)[C@]1(C)[C@H](OC(=O)c1ccc(O)cc1)C[C@@H]1[C@@]3(C)CC[C@H](OC(=O)c4cccc5ccccc45)CC3=CC[C@]12O`, for which, in series [1], the inhibition result is “inactive”. In addition, the Activity entry in series [2] was “Toxic”.
In turn, `C[C@@H](OC(=O)c1cccnc1)[C@]1(O)CC[C@@]2(O)[C@]1(C)[C@H](OC(=O)/C=C/c1ccccc1)C[C@@H]1[C@@]3(C)CC[C@H](OC(=O)c4ccccc4)CC3=CC[C@]12O` returned an EC10 in series [5] above 10 µM. For the same compound, the EC50 in series [6] stood at 11.1 µM. Moreover, the CC10 in series [7] was above 10 µM.
As for `CC(=O)[C@]1(OC(=O)/C=C/c2ccc([N+](=O)[O-])cc2)CC[C@@]2(O)[C@]1(C)[C@H](OC(=O)c1ccc(O)cc1)C[C@@H]1[C@@]3(C)CC[C@H](OC(=O)/C=C/c4ccc([N+](=O)[O-])cc4)CC3=CC[C@]12O`, the inhibition result in series [1] is “inactive”. The Activity result in series [2] is “Toxic”.
Take `CCC(=O)O[C@H]1CC[C@@]2(C)C(=CC[C@]3(O)[C@@H]2C[C@@H](OC(=O)c2ccc(O)cc2)[C@@]2(C)[C@]3(O)CC[C@@]2(OC(=O)CC)C(C)=O)C1`: in series [1], the inhibition result is “inactive”. Further, the Activity result in series [2] is on record as “Toxic”.
Turning to `CC(=O)[C@]1(O)CC[C@@]2(O)[C@]1(C)[C@H](OC(=O)/C=C/c1ccccc1)C[C@@H]1[C@@]3(C)CC[C@H](O)CC3=CC[C@]12O`, the inhibition entry in series [1] was “inactive”. Further, the Activity entry in series [2] is recorded as “Toxic”.
In the same order, the values of `COc1cc(/C=C/C(=O)O[C@H]2CC[C@@]3(C)C(=CC[C@]4(O)[C@@H]3C[C@@H](OC(=O)c3ccc(O)cc3)[C@@]3(C)[C@]4(O)CC[C@@]3(OC(=O)/C=C/c3cc(OC)c(OC)c(OC)c3)C(C)=O)C2)cc(OC)c1OC` are “inactive” and “Toxic”.
For `CC(=O)O[C@H]1CC[C@@]2(C)C(=CC[C@]3(O)[C@@H]2C[C@@H](OC(=O)c2ccc(O)cc2)[C@@]2(C)[C@]3(O)CC[C@@]2(O)C(C)=O)C1`, the inhibition entry in series [3] and in series [4] was “inactive” throughout.
In series [5], `C[C@@H](OC(=O)c1cccnc1)[C@]1(O)CC[C@@]2(O)[C@]1(C)[C@H](OC(=O)/C=C/c1ccccc1)C[C@@H]1[C@@]3(C)C=CC(=O)C=C3C=C[C@]12O` yielded an EC10 above 10 µM. Moreover, in series [6], the EC50 came out at 6.35 µM. The CC10 in series [7] is above 10 µM.
Turning to `CC(=O)[C@]1(O)CC[C@@]2(O)[C@]1(C)[C@H](OC(=O)/C=C(\C)C(C)C)C[C@@H]1[C@@]3(C)CC[C@H](OC(=O)/C=C/c4ccccc4)CC3=CC[C@]12O`, the inhibition entry in series [3] and in series [4] was “inactive” throughout.
